Data set [1] deals with MDA-MB-231 cells. Briefly: MTT cytotoxicity assay, MDA-MB-231. Type of data set: cell-based, human. The note with it: MDA-MB-231, MTT; for IC50: Homo sapiens, mean ± SD of two independent experiments in triplicate, read-out: IC50 (cell survival). The method, then: The synthesized chrysin derivatives were evaluated for cytotoxic efficacy in the human breast cancer cell line, MDA-MB-231, using the 3-(4,5-dimethylthiazol-2yl)-2,5-diphenyltetrazolium bromide (MTT) colorimetric assay and doxorubicin was used as a reference anticancer drug.
(§1) A panel of cancer cell lines, including breast (MDA-MB-231, BT20), brain (U251), and colon (HCT116), as well as a normal cell line (human mammary epithelial cells: HMECs), were grown as adherent monolayers in flasks with Dulbecco’s Modified Eagle Medium (DMEM), supplemented with 10% fetal bovine serum (FBS) and 1% penicillin and streptomycin in a humidified incubator with 5% CO2 at 37 °C.
The (3-(4,5-dimethylthiazol-2-yl)-2,5-diphenyltetrazolium bromide) (MTT) assay was used to determine the cytotoxicity of the 15 chrysin derivatives in the above-mentioned cell lines. Briefly, cells were harvested with 0.05% trypsin, 2.21 mM ethylenediaminetetraacetic acid (EDTA), 1× from Corning (Corning, NY, USA), and suspended at a final density of 5 × 10^3 cells/well. Cells were seeded (180 μL/well) into 96-well plates. Initially, four different concentrations of each compound were added to find the compounds with the greatest antiproliferative efficacy in the MDA-MB-231 cell line (0, 1, 10, and 100 μM). Subsequently, […] different concentrations […] of each compound were added to the remaining cell lines mentioned above. After 68 h of incubation, 20 μL of the MTT solution (4 mg/mL) were added to each well, and the plates were incubated for 4 h. This allowed viable cells to biotransform the yellow-colored MTT into dark-blue formazan crystals. Subsequently, the medium was discarded, and 150 μL of DMSO were added to each well to dissolve the formazan crystals. The absorbance was determined at 590 nm using a DTX 880 multimode detector (Beckman Coulter life sciences, IN, USA). […] The IC50 values were calculated from the cell survival percentages obtained for each compound tested at different concentrations. Similarly, the cytotoxicity of the test compounds was compared to the normal cell line (HMEC).

In a further data set the test system is BT-20. Briefly: MTT cytotoxicity assay, BT-20. Format: cell-based. The note with it: Homo sapiens, mean ± SEM of three independent experiments in triplicate, read-out: IC50 Breast Cancer BT-20. The method, then: as §1
(§2) The (3-(4,5-dimethylthiazol-2-yl)-2,5-diphenyltetrazolium bromide) (MTT) assay was used to determine the cytotoxicity of the 15 chrysin derivatives in the above-mentioned cell lines. Briefly, cells were harvested with 0.05% trypsin, 2.21 mM ethylenediaminetetraacetic acid (EDTA), 1× from Corning (Corning, NY, USA), and suspended at a final density of 5 × 10^3 cells/well. Cells were seeded (180 μL/well) into 96-well plates. Initially, four different concentrations of each compound were added to find the compounds with the greatest antiproliferative efficacy in the MDA-MB-231 cell line (0, 1, 10, and 100 μM). Subsequently, […] different concentrations […] of each compound were added to the remaining cell lines mentioned above. After 68 h of incubation, 20 μL of the MTT solution (4 mg/mL) were added to each well, and the plates were incubated for 4 h. This allowed viable cells to biotransform the yellow-colored MTT into dark-blue formazan crystals. Subsequently, the medium was discarded, and 150 μL of DMSO were added to each well to dissolve the formazan crystals. The absorbance was determined at 590 nm using a DTX 880 multimode detector (Beckman Coulter life sciences, IN, USA). The IC50 ± SD concentrations were calculated from three experiments performed in triplicate/duplicate. The IC50 values were calculated from the cell survival percentages obtained for each compound tested at different concentrations. Similarly, the cytotoxicity of the test compounds was compared to the normal cell line (HMEC).
On the technique in general: Formazan colour is commonly taken as a measure of viable cells.

The test system of the next data set is U-251. The experiment in a line: MTT cytotoxicity assay, U-251. Format: cell-based. The note with it: Homo sapiens, mean ± SEM of three independent experiments in triplicate, read-out: IC50 Brain Cancer U-251. The method, then: as §1, §2
The subject of a further data set is HCT116. The experiment in a line: MTT cytotoxicity assay, HCT116. Format: cell-based. The note with it: Homo sapiens, HCT-116, mean ± SEM of three independent experiments in triplicate, read-out: IC50 Colon Cancer HCT116. The method, then: as §1, §2
In data set [2] the test system is HMEC (human mammary epithelial cells). Briefly: MTT cytotoxicity assay, normal cells HMEC. Type of data set: cell-based. Particulars: mean ± SEM of three independent experiments in triplicate. As for the experimental part:
as §1, §2

Data set [3] relates to MDA-MB-231 cells. Further details: method as in PMID 30774307. Particulars: cited from earlier work; for IC50: MDA-MB-231, MTT, data taken from ref 29, read-out: IC50 (cell survival).

Results on twelve compounds are retold here after paper PMC7412250, “Novel Chrysin-De-Allyl PAC-1 Hybrid Analogues as Anticancer Compounds: Design, Synthesis, and Biological Evaluation” (Molecules, 2020).

Like-named read-outs stand apart in the source and are kept apart here.

The term IC50 denotes the concentration that gives 50% inhibition. Take `O=C(COc1cc(O)c2c(=O)cc(-c3ccccc3)oc2c1)N/N=C/c1ccccc1O` [Compound 4a, (E,Z)-2-((5-Hydroxy-4-oxo-2-phenyl-4H-chromen-7-yl)oxy)-N’-(2-hydroxybenzylidene)acetohydrazide]: the IC50 came to 6.8 ± 2.76 µM with MDA-MB-231 cells [1]; 4.41 ± 0.99 µM in the data set on BT-20; 8.63 ± 4.86 µM in the data set on U-251; 2.88 ± 0.09 µM with HCT116; 7.12 ± 4.55 µM in data set [2].

Regarding `O=C(COc1cc(O)c2c(=O)cc(-c3ccccc3)oc2c1)N/N=C/c1ccccc1` [Compound 4b, (E,Z)-N’-Benzylidene-2-((5-hydroxy-4-oxo-2-phenyl-4H-chromen-7-yl)oxy)acetohydrazide], the IC50 in the data set on MDA-MB-231 cells [1] worked out at 9.4 ± 3.38 µM.

`COc1ccccc1/C=N/NC(=O)COc1cc(O)c2c(=O)cc(-c3ccccc3)oc2c1` [Compound 4c, (E,Z)-2-((5-Hydroxy-4-oxo-2-phenyl-4H-chromen-7-yl)oxy)-N’-(2-methoxybenzylidene)acetohydrazide]: in the data set on MDA-MB-231 cells [1], the IC50 was found to be 23.3 ± 6.98 µM.

Regarding `O=C(COc1cc(O)c2c(=O)cc(-c3ccccc3)oc2c1)N/N=C/c1ccc(O)cc1` [Compound 4e, (E,Z)-2-((5-Hydroxy-4-oxo-2-phenyl-4H-chromen-7-yl)oxy)-N’-(4-hydroxybenzylidene)acetohydrazide], in the data set with MDA-MB-231 cells [3], the IC50 is 54.8 ± 5.7 µM.

Regarding `COc1ccc(/C=N/NC(=O)COc2cc(O)c3c(=O)cc(-c4ccccc4)oc3c2)cc1` [Compound 4f, (E,Z)-2-((5-Hydroxy-4-oxo-2-phenyl-4H-chromen-7-yl)oxy)-N’-(4-methoxybenzylidene)acetohydrazide], the IC50 with MDA-MB-231 cells [3] is 11.9 ± 3.5 µM. In addition, in the data set on MDA-MB-231 cells [3] (MDA-MB-231 cytotoxic efficacy relative to 4e), the “times more efficacious than 4e” value is on record as ~ 5 times.

Consider `O=C(COc1cc(O)c2c(=O)cc(-c3ccccc3)oc2c1)N/N=C/c1c(O)cc(O)cc1O` [Compound 4j, (E,Z)-2-((5-Hydroxy-4-oxo-2-phenyl-4H-chromen-7-yl)oxy)-N’-(2,4,6-trihydroxybenzylidene)acetohydrazide], for which, in the data set on MDA-MB-231 cells [1], the “cytotoxic efficacy (in words)” value was “totally inactive”.

As to `O=C(COc1cc(O)c2c(=O)cc(-c3ccccc3)oc2c1)N/N=C/c1ccco1` [Compound 4k, (E,Z)-N’-(Furan-2-ylmethylene)-2-((5-hydroxy-4-oxo-2-phenyl-4H-chromen-7-yl)oxy)acetohydrazide], in the data set on MDA-MB-231 cells [1], the IC50 is 66.7 ± 11.1 µM and the “cytotoxic efficacy (in words)” value was “did not have significant cytotoxic efficacy”.

As for `O=C(COc1cc(O)c2c(=O)cc(-c3ccccc3)oc2c1)N/N=C/c1cccnc1` [Compound 4l, (E,Z)-2-((5-Hydroxy-4-oxo-2-phenyl-4H-chromen-7-yl)oxy)-N’-(pyridin-3-ylmethylene)acetohydrazide], in the data set on MDA-MB-231 cells [1], the “cytotoxic efficacy (in words)” value is recorded as “did not have significant cytotoxic efficacy”.

For `O=C(COc1cc(O)c2c(=O)cc(-c3ccccc3)oc2c1)N/N=C/c1ccccn1` [Compound 4m, (E,Z)-2-((5-Hydroxy-4-oxo-2-phenyl-4H-chromen-7-yl)oxy)-N’-(pyridin-2-ylmethylene)acetohydrazide], in the data set with MDA-MB-231 cells [1], the “cytotoxic efficacy (in words)” value was “did not have significant cytotoxic efficacy”.

On to `O=C(COc1cc(O)c2c(=O)cc(-c3ccccc3)oc2c1)N/N=C/c1c(O)ccc2ccccc12` [Compound 4n, (E,Z)-2-((5-Hydroxy-4-oxo-2-phenyl-4H-chromen-7-yl)oxy)-N’-((2-hydroxynaphthalen-1-yl)methylene)acetohydrazide], for which the “cytotoxic efficacy (in words)” value in the data set with MDA-MB-231 cells [1] is “inactive”.

For `O=C(COc1cc(O)c2c(=O)cc(-c3ccccc3)oc2c1)N/N=C/c1cc([N+](=O)[O-])ccc1O` [Compound 4o], the IC50 in the data set on MDA-MB-231 cells [1] was 7.9 ± 1.82 µM; in the data set with BT-20, 7.25 ± 1.82 µM; in the data set with U-251, 11.3 ± 2.84 µM; in the data set on HCT116, 3.85 ± 0.34 µM; in data set [2] it was 7.17 ± 4.1 µM.

In the case of `COc1cccc2c1C(=O)c1c(O)c3c(c(O)c1C2=O)C[C@@](O)(C(=O)CO)C[C@@H]3O[C@H]1C[C@H](N)[C@H](O)[C@H](C)O1` [Doxorubicin, reference compound], in the data set on MDA-MB-231 cells [1], the IC50 was determined as 0.2 ± 0.1 µM.
